Publication PMC6704710, “Preclinical evaluation of 3D185, a novel potent inhibitor of FGFR1/2/3 and CSF-1R, in FGFR-dependent and macrophage-dominant cancer models” (Journal of Experimental & Clinical Cancer Research : CR, 2019)

How the values were obtained:
Assay in all cases: Eurofins kinase panel
Assay type in all cases: biochemical
Conditions in all cases: read-out: Inhibition rate (%)
CDK1/cyclinB(h) = target: T1, CDK1/cyclinB(h) (Homo sapiens, UniProt P06493)
T1 construct: purchased Eurofins (KinaseProfiler)

CDK3/cyclinE(h) = target: T2, CDK3/cyclinE(h) (Homo sapiens, UniProt Q00526)
T2 construct: purchased Eurofins (KinaseProfiler)

EphA5(h) = target: T3, EphA5(h) (Homo sapiens, UniProt P54756)
T3 construct: purchased Eurofins (KinaseProfiler)

Haspin(h) = target: T4, Haspin(h) (Homo sapiens, UniProt Q8TF76)
T4 construct: purchased Eurofins (KinaseProfiler)
T4 sequence (Q8TF76 1-798): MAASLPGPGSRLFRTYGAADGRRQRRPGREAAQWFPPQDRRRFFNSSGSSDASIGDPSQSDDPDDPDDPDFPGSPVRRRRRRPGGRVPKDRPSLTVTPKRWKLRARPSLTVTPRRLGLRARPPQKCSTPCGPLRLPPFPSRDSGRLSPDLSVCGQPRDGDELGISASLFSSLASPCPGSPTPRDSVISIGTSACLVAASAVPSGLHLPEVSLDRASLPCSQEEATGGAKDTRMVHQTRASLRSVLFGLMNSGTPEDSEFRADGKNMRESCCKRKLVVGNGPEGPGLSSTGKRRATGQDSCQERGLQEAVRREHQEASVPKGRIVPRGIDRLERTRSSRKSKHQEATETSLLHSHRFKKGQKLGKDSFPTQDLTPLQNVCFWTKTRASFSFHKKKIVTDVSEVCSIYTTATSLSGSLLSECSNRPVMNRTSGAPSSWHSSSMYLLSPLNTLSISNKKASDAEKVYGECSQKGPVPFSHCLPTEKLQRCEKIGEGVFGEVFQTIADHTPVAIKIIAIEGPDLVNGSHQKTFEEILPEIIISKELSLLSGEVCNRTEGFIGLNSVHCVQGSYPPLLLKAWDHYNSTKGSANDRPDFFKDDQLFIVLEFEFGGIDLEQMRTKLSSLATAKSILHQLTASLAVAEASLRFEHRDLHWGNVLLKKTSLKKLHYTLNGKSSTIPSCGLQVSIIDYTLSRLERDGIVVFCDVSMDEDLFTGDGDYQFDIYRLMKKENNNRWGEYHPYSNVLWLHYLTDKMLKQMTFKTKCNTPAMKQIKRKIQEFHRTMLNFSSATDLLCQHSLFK

KDR(h) = target: T5, KDR(h) (Homo sapiens, UniProt P35968)
T5 construct: purchased Eurofins (KinaseProfiler)

LOK(h) = target: T6, LOK(h) (Homo sapiens, UniProt O94804)
T6 construct: purchased Eurofins (KinaseProfiler)

MST1(h) = target: T7, MST1(h) (Homo sapiens, UniProt Q13043)
T7 construct: purchased Eurofins (KinaseProfiler)
T7 sequence (Q13043 1-487): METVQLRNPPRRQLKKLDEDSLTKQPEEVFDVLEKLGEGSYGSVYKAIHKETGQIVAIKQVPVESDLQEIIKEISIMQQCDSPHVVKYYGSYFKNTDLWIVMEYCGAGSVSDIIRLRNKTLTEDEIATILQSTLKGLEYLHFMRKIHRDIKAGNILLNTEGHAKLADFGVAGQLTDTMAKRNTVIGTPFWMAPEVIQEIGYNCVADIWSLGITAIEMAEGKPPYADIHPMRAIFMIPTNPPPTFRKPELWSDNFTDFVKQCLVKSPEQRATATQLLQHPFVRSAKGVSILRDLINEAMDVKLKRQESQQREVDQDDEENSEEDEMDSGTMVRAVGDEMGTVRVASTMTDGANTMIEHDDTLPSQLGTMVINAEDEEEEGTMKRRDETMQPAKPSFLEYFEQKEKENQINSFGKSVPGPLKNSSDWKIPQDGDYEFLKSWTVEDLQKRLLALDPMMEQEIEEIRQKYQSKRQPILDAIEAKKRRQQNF

SAPK4(h) = target: T8, SAPK4(h) (Homo sapiens, UniProt O15264)
T8 construct: purchased Eurofins (KinaseProfiler)
T8 sequence (O15264 1-365): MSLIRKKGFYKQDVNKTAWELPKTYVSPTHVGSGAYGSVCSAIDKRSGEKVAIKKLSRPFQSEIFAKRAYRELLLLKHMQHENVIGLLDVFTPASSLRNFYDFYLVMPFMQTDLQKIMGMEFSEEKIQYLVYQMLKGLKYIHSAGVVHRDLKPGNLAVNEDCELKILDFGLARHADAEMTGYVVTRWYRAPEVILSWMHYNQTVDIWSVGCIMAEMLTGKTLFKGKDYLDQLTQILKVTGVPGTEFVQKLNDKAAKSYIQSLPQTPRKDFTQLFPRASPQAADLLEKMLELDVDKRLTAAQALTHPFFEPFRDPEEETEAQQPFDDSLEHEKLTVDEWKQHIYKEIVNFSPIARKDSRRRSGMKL

Wee1(h) = target: T9, Wee1(h) (Homo sapiens, UniProt P30291)
T9 construct: purchased Eurofins (KinaseProfiler)

cKit(V560G)(h) = target: T10, cKit(V560G)(h) (Homo sapiens, UniProt P10721, V560G)
T10 construct: purchased Eurofins (KinaseProfiler)

mTOR(h) = target: T11, mTOR(h) (Homo sapiens, UniProt P42345)
T11 construct: purchased Eurofins (KinaseProfiler)

p70S6K(h) = target: T12, p70S6K(h) (Homo sapiens, UniProt P23443)
T12 construct: purchased Eurofins (KinaseProfiler)
T12 sequence (P23443 whole entry): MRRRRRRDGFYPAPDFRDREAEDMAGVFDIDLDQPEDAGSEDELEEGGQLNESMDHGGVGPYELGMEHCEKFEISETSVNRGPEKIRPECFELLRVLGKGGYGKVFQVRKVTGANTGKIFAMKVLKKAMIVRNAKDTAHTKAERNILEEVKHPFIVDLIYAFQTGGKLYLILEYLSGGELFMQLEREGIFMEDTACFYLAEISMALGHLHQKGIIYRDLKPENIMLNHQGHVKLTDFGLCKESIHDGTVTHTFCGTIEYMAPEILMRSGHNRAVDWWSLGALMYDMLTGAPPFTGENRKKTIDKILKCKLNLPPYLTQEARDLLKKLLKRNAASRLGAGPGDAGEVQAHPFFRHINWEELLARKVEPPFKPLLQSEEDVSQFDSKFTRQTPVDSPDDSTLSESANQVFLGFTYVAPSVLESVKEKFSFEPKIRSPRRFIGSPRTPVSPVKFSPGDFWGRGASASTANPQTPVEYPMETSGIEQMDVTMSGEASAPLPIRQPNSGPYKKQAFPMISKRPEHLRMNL

T6 sequence (O94804 whole entry): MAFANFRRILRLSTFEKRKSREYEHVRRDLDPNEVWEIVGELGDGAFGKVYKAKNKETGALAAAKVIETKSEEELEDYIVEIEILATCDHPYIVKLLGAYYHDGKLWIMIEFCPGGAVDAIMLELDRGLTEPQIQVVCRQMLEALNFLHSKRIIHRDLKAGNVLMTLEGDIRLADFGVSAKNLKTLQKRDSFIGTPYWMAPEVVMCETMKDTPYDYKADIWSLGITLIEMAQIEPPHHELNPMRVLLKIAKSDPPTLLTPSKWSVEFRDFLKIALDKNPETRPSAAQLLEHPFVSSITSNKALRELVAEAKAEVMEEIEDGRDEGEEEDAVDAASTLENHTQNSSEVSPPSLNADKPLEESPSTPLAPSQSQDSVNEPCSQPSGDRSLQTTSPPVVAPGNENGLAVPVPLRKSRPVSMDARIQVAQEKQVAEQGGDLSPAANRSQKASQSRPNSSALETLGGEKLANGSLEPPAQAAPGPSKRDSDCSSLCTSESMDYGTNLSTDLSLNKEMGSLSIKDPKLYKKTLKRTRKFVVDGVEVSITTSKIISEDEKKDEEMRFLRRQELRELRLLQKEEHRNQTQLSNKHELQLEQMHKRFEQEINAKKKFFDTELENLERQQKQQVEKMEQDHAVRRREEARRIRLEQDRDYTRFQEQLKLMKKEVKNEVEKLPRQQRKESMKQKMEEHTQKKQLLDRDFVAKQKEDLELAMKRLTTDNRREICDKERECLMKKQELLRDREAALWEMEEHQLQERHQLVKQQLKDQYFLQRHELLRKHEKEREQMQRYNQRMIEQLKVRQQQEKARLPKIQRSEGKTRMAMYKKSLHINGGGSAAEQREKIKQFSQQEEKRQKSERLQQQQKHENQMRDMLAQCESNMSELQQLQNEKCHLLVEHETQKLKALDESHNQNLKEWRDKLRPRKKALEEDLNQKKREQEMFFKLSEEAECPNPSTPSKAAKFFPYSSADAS
T10 sequence (P10721 26-976 V560G): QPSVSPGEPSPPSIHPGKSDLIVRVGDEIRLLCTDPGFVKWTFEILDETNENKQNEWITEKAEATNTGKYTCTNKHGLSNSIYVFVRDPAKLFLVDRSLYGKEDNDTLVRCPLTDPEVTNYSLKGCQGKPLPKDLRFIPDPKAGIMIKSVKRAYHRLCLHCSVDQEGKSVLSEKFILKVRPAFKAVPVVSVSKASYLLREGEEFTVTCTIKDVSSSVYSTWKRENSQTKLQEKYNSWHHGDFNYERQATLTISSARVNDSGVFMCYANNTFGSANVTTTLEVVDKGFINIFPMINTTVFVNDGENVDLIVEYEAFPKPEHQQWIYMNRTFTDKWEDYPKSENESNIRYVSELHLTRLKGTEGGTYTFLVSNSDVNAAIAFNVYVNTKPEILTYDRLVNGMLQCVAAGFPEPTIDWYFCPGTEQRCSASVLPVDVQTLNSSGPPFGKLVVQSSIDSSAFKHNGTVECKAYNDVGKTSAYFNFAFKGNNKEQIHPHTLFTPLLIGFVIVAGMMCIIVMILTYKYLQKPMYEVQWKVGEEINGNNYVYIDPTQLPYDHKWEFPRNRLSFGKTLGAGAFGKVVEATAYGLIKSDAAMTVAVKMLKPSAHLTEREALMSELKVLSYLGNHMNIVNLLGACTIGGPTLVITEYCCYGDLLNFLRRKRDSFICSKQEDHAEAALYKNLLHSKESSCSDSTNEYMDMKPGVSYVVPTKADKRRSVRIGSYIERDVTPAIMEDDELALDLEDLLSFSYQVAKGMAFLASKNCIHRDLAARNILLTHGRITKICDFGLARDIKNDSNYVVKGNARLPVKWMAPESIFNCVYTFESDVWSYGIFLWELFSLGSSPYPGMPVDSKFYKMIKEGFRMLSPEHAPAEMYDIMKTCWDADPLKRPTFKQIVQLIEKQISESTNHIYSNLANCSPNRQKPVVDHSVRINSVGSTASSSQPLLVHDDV
T3 sequence (P54756 25-1037): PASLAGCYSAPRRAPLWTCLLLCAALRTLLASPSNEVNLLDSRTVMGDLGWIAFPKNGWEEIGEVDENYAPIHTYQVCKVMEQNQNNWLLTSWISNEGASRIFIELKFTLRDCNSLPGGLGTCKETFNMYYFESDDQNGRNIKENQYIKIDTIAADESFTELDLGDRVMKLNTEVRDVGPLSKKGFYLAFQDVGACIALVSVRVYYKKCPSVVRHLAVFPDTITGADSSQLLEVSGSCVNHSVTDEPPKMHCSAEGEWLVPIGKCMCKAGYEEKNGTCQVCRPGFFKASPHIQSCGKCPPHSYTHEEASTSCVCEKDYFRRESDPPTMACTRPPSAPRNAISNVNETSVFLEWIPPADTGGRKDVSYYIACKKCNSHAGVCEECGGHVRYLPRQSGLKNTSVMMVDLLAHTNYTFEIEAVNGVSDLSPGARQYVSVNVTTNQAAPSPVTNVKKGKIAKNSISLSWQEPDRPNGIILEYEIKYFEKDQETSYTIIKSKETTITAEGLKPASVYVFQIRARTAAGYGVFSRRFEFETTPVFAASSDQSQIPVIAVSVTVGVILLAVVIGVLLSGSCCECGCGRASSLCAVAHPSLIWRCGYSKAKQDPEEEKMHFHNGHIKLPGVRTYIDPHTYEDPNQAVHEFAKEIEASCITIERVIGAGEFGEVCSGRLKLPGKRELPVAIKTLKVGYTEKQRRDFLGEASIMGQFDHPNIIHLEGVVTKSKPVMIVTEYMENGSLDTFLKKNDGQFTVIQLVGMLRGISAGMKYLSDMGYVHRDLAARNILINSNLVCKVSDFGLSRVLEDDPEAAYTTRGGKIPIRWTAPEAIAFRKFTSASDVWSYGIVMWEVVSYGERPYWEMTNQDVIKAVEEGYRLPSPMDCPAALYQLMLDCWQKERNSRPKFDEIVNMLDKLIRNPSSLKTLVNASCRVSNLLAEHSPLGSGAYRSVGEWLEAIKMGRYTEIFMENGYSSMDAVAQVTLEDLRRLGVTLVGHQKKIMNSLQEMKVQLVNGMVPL
T1 sequence (P06493 whole entry): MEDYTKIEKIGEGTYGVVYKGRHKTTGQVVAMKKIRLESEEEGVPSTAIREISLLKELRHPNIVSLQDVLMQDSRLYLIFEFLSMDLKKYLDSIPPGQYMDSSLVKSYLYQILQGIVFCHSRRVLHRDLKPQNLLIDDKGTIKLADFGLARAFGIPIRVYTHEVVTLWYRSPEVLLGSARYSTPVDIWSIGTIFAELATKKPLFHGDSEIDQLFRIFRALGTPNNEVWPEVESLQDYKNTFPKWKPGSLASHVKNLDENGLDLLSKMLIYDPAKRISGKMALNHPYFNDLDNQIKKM
T1 sequence (P14635 whole entry partner): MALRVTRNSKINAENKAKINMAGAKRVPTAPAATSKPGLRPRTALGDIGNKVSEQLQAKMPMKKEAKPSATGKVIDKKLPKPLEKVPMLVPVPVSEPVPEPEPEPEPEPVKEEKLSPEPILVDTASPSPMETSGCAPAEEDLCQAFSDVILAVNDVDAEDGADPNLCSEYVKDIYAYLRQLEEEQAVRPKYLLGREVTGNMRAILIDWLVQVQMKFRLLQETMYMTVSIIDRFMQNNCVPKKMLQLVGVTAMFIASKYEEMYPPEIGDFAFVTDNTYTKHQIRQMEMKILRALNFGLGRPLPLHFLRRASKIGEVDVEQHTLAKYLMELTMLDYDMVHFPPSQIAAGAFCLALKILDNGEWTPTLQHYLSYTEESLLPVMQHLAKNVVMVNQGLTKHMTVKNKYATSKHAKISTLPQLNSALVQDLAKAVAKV
T2 sequence (Q00526 whole entry): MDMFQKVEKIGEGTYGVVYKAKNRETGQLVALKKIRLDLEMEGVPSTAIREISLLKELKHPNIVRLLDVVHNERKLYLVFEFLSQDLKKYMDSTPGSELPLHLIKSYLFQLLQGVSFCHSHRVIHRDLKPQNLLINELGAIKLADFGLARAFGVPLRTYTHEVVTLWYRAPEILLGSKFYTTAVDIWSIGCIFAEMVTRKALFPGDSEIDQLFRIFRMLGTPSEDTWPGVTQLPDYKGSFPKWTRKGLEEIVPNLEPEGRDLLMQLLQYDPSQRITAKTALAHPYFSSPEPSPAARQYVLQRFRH
T2 sequence (P24864 whole entry partner): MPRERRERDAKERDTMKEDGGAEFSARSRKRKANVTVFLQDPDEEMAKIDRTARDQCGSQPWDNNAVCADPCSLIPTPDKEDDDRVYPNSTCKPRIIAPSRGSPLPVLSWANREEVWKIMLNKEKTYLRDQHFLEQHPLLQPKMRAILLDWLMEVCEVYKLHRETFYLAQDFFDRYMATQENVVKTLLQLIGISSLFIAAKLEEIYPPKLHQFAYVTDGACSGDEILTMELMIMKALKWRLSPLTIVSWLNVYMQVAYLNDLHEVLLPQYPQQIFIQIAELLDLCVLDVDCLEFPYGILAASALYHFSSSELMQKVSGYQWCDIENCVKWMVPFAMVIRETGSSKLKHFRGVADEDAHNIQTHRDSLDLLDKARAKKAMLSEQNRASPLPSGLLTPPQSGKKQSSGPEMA

For `COc1cc(OC)c(Cl)c(-c2ccc3c(NC(=O)c4ccc(N5CCNC(C)(C)C5)cc4)n[nH]c3n2)c1Cl` [3D185], the inhibition at 0.01 µM (CDK1/cyclinB(h); 10 nM) was 0%, the inhibition at 0.1 µM (CDK1/cyclinB(h); 100 nM) was 2% and the inhibition at 1 µM (CDK1/cyclinB(h); 1000 nM) was -11%. It also gave an inhibition at 0.01 µM (CDK3/cyclinE(h); 10 nM) of 1%, an inhibition at 0.1 µM (CDK3/cyclinE(h); 100 nM) of -11% and an inhibition at 1 µM (CDK3/cyclinE(h); 1000 nM) of -19%. It also gave an inhibition at 0.01 µM (EphA5(h); 10 nM) of 11%, an inhibition at 0.1 µM (EphA5(h); 100 nM) of 10% and an inhibition at 1 µM (EphA5(h); 1000 nM) of 13%. The inhibition at 0.01 µM (Haspin(h); 10 nM) was -15%, the inhibition at 0.1 µM (Haspin(h); 100 nM) was -6% and the inhibition at 1 µM (Haspin(h); 1000 nM) was 4%. It also gave an inhibition at 0.01 µM (KDR(h); 10 nM) of -2%, an inhibition at 0.1 µM (KDR(h); 100 nM) of 1% and an inhibition at 1 µM (KDR(h); 1000 nM) of 10%. It also gave an inhibition at 0.01 µM (LOK(h); 10 nM) of 1%, an inhibition at 0.1 µM (LOK(h); 100 nM) of 27% and an inhibition at 1 µM (LOK(h); 1000 nM) of 77%. It also gave an inhibition at 0.01 µM (MST1(h); 10 nM) of 2%, an inhibition at 0.1 µM (MST1(h); 100 nM) of 11% and an inhibition at 1 µM (MST1(h); 1000 nM) of 32%. The inhibition at 0.01 µM (SAPK4(h); 10 nM) was -12%, the inhibition at 0.1 µM (SAPK4(h); 100 nM) was -8% and the inhibition at 1 µM (SAPK4(h); 1000 nM) was -11%. For the same compound, the inhibition at 0.01 µM (Wee1(h); 10 nM) was -5%, the inhibition at 0.1 µM (Wee1(h); 100 nM) was -16% and the inhibition at 1 µM (Wee1(h); 1000 nM) was 6%. It also gave an inhibition at 0.01 µM (cKit(V560G)(h); 10 nM) of 10%, an inhibition at 0.1 µM (cKit(V560G)(h); 100 nM) of 38% and an inhibition at 1 µM (cKit(V560G)(h); 1000 nM) of 71%. The inhibition at 0.01 µM (mTOR(h); 10 nM) was -2%, the inhibition at 0.1 µM (mTOR(h); 100 nM) was -2% and the inhibition at 1 µM (mTOR(h); 1000 nM) was 4%. It also gave an inhibition at 0.01 µM (p70S6K(h); 10 nM) of -4%, an inhibition at 0.1 µM (p70S6K(h); 100 nM) of -9% and an inhibition at 1 µM (p70S6K(h); 1000 nM) of -1%.
